For orientation: IC50 means the concentration that gives 50% inhibition. As a reminder, the EC50 is the concentration needed to bring the measured effect to its halfway point. By AC50 is commonly meant the midpoint of the concentration-response curve, whichever way the signal moves. As usually defined, the CC50 is the concentration that lowers cell viability or growth by half.

The target of test [1] is T1, Fructose-bisphosphate aldolase (Mycobacterium tuberculosis, UniProt P9WQA3).
T1 sequence (P9WQA3 whole entry): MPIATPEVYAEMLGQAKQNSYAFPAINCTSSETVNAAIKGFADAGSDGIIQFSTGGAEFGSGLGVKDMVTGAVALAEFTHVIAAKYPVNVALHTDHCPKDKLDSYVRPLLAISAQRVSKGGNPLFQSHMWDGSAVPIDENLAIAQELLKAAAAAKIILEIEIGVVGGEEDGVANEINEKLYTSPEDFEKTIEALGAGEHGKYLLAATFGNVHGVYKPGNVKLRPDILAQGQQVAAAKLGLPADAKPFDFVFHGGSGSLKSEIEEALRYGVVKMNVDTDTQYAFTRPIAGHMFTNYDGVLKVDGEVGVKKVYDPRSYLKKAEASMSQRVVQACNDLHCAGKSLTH
Briefly: Fluorescence-based biochemical high throughput dose response assay for inhibitors of the fructose-bisphosphate aldolase (FBA) of M. tuberculosis. The test is classed as functional.

The next test addresses Albumin (Bos taurus, UniProt P02769). Briefly: Counterscreen for inhibitors of T-cell receptor (TCR)-CD3 interaction: Fluorescence-based biochemical high throughput dose response assay to identify inhibitors of T-cell receptor (TCR)-CD3 interaction using a TAMRA-labeled BSA probe. The test is classed as functional. (A counterscreen serves to expose hits that act by an unwanted route or on another target.)

Test [2] in a line: NIH-3T3 fibroblast cytotoxicity, dose response, cytotoxicity control, cell-based, fluorescence, Alamar Blue, secondary assay (AID 2327).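 Further: NIH-3T3 mouse fibroblasts cultured with fluconazole at 8 µg/mL.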 It counts as functional.
A short description of test [3]: C. albicans growth with fluconazole, confirmation, fluorescence, retest (AID 2467). The test is classed as functional, cell-based.
Test [4] addresses T2, Long-chain-fatty-acid--AMP ligase FadD28 (Mycobacterium tuberculosis, UniProt P9WQ59).
T2 sequence (P9WQ59 whole entry): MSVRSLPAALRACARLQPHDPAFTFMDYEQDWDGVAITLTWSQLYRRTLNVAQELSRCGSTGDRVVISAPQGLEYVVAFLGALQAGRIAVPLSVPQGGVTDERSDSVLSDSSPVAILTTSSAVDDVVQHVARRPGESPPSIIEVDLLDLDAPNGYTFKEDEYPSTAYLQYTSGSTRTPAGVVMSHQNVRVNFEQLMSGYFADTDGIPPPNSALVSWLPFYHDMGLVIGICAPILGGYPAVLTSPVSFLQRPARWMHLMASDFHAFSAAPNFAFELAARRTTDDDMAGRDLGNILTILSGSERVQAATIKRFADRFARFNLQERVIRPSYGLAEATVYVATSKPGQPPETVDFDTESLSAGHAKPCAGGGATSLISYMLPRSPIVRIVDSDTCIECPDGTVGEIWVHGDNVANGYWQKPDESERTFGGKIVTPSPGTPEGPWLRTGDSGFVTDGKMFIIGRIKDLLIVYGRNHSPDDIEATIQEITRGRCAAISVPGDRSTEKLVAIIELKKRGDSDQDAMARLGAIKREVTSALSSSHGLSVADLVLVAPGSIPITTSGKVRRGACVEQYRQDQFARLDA
Briefly: Fluorescence polarization aasay to screen for inhibitors that compete for the binding of FadD28 to a bisubstrate Measured in Biochemical System Using Plate Reader - 2147-01_Inhibitor_Dose_CherryPick_Activity. The test is classed as functional, Mycobacterium tuberculosis H37Rv.

The target in the next test is Mu-type opioid receptor (Homo sapiens, UniProt P35372). It counts as functional, cell-based.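 Further: U2OS cells with beta-arrestin recruitment to OPRM1 by beta-gal complementation.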
The target of test [5] is 5-hydroxytryptamine receptor 2A (Mus musculus, UniProt P35363). It counts as functional, cell-based.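 Further: CHO-K1 cells with tagged receptor and beta-arrestin; agonist potency measured as compound-induced activation of the receptor.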
A short description of test [6]: HeLa cell cytotoxicity, dose response, cytotoxicity control for MgcRacGAP inhibitor project (AID 624300). It counts as functional.
Test [7] concerns the target T3, DNA repair and recombination protein RAD54-like (Homo sapiens, UniProt Q92698).
T3 sequence (Q92698 whole entry): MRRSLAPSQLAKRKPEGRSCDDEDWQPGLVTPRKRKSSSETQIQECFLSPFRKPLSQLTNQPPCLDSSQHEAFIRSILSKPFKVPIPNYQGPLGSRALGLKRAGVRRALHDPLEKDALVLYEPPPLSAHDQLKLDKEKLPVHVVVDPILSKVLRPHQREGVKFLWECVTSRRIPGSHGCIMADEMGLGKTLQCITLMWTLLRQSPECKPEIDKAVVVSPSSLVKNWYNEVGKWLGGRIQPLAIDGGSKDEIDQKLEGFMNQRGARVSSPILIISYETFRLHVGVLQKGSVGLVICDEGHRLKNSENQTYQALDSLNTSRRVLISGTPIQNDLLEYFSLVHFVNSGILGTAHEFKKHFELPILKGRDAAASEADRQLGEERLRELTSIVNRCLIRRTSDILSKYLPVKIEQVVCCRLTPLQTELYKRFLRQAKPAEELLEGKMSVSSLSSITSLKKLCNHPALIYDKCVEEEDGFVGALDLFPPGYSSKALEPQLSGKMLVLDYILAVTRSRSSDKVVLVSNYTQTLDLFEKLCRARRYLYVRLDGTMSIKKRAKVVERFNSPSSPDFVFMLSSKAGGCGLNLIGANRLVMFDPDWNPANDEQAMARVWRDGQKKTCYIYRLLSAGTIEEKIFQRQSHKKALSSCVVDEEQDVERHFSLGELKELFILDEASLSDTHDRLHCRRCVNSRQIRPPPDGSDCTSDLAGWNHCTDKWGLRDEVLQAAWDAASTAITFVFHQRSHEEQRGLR
Briefly: inhibitors of human RAD54 branch migration, confirmation, biochemical, fluorescence, cherry-picked samples, dose series (AID 651657). The test is classed as functional.

For the next test, the target named is Large T antigen (Simian virus 40, UniProt P03070). The test is classed as functional, Betapolyomavirus macacae.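 Further: Confirmatory-stage PubChem screen for compounds that inhibit SV40 T antigen.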
In test [8] the target is T4, Rac GTPase-activating protein 1 (Homo sapiens, UniProt Q9H0H5).
T4 sequence (Q9H0H5 whole entry): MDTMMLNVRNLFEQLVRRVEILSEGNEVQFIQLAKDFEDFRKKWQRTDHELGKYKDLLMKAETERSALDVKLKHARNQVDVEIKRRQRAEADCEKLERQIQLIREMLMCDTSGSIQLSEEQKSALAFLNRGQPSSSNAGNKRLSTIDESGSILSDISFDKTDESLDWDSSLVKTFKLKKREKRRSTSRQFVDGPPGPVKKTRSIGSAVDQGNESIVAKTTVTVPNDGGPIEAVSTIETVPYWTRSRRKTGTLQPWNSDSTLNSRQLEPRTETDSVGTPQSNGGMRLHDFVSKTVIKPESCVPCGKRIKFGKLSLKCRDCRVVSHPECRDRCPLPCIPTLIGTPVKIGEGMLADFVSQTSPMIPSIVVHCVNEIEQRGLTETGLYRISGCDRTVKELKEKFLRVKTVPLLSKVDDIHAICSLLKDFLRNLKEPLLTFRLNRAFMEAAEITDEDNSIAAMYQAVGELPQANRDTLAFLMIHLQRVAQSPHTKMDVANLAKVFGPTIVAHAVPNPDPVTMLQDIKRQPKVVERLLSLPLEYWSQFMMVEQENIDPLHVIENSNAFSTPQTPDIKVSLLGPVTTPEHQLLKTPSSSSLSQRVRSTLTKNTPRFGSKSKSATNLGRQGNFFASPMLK
In words: MgcRacGAP GTPase-activating activity inhibitors, confirmation, biochemical, ADP Hunter fluorescence, primary and confirmatory (AID 624330). The test is classed as functional.

Test [9] has as its target Luciferin 4-monooxygenase (Photinus pyralis, UniProt P08659). In words: firefly luciferase enzyme inhibitors, dose response, biochemical, luminescence (AID 1891).
The nature of test [10]: Luminescence Cell-Based Dose Confirmation HTS to Identify Inhibitors of Platelet Dense Granule Release. [Related pubchem assays: 1663 (Primary HTS), 1678 (Summary of Project)]. It counts as functional.
Test [11] in a line: miR-122 activators in hepatoma reporter cells, dose response, cell-based, Huh7 psiCHECK-miR122, Renilla luciferase, cherry-picked (AID 651956).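 Further: huh7 hepatoma cells stably carrying a psiCHECK-2 miR-122 sensor plasmid; renilla luciferase signal reporting endogenous miR-122 activity after 48 h compound exposure.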 It counts as functional.

The source made the active and inactive calls.

Mu-type opioid receptor, sequence (P35372 whole entry): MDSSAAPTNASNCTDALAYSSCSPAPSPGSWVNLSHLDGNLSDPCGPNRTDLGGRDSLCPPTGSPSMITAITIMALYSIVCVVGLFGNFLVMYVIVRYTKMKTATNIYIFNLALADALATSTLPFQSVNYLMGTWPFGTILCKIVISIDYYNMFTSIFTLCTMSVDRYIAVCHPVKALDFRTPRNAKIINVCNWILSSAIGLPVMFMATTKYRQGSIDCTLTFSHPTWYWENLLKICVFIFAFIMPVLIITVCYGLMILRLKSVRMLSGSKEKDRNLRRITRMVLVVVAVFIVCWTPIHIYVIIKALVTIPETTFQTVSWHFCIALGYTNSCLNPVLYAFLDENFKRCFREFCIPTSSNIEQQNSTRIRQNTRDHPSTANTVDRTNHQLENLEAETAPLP
5-hydroxytryptamine receptor 2A, sequence (P35363 whole entry): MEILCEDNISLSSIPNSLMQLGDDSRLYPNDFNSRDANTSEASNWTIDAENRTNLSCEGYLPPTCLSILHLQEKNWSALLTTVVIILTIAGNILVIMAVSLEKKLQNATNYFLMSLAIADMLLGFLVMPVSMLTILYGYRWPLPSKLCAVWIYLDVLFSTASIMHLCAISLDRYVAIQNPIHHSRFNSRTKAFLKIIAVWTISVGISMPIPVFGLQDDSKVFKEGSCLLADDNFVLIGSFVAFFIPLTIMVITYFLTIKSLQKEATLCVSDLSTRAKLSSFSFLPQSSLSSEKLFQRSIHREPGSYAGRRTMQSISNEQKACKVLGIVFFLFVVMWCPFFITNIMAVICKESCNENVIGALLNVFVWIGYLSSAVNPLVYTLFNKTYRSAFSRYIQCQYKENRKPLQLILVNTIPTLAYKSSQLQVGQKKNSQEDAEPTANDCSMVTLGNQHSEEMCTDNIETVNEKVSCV
Albumin, sequence (P02769 whole entry): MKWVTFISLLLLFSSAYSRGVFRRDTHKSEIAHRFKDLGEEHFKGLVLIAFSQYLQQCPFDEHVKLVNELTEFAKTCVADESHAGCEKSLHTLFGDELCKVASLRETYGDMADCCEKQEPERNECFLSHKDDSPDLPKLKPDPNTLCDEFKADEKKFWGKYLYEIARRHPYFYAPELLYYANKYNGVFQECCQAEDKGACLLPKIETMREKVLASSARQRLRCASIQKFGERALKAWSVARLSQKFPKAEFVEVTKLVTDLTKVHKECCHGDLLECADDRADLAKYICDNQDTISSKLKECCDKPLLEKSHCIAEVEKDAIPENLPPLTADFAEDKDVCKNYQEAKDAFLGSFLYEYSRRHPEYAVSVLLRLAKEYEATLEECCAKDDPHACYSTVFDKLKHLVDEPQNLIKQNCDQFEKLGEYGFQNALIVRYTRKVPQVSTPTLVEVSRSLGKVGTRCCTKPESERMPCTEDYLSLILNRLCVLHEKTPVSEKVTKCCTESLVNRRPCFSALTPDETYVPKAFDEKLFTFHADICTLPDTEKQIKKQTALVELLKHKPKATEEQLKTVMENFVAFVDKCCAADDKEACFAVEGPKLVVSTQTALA
Luciferin 4-monooxygenase, sequence (P08659 whole entry): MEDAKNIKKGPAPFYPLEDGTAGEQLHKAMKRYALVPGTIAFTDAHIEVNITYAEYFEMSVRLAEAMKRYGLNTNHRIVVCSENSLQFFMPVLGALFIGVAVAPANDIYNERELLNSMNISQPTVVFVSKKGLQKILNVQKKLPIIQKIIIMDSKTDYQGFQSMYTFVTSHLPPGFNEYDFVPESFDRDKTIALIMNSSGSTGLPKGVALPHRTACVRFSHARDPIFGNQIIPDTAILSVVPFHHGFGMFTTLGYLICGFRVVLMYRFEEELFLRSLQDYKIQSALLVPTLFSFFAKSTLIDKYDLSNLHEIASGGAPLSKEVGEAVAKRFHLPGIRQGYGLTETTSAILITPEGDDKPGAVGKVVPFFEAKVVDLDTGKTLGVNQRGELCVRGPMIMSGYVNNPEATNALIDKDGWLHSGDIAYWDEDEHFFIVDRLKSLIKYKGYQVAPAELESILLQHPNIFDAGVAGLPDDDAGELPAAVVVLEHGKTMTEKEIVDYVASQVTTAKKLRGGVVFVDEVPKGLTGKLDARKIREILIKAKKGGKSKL
Large T antigen, sequence (P03070 whole entry): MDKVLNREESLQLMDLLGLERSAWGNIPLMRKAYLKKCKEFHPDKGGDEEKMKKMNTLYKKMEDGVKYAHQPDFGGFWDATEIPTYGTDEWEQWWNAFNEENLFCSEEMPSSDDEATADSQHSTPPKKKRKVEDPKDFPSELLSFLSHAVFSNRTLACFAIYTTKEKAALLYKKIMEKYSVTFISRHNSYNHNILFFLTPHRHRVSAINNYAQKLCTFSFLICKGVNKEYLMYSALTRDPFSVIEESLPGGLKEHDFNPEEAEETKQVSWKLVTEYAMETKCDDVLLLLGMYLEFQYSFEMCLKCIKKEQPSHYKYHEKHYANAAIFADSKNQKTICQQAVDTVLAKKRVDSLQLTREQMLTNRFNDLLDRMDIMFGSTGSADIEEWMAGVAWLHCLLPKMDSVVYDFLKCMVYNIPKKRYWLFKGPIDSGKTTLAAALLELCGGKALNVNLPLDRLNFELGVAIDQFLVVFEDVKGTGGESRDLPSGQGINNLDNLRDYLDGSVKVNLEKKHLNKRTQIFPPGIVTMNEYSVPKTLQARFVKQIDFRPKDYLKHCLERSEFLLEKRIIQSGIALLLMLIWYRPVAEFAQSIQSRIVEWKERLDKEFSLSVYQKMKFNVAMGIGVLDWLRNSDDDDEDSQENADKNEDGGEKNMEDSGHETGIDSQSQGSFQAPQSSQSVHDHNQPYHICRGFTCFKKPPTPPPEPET

`CCOc1ccc(NC(=O)NNC(=O)c2ccc3ccccc3c2O)cc1`: the concentration for half-maximal inhibition (IC50) was 3.15 µM (active) in [1] and > 94.1 µM (inactive) on Albumin. Moreover, the EC50 in test [2] is > 150 µM (inactive); in test [3], 2.58 µM (active).
Turning to `CN(C)S(=O)(=O)c1cccc(NC(=O)CCc2c[nH]c3ccccc23)c1`, the concentration at half-maximal activity (AC50) in test [4] was 97.9 µM (active).
For `CC(=O)NC(CC(=O)NNC(=O)c1cc2ccccc2cc1O)c1ccccc1` (stereo not drawn), the IC50 at Albumin is > 94.1 µM (inactive). Also, the EC50 in [2] was > 160 µM (inactive); in test [3] it was > 38 µM (not active).
As to `Cc1nc(-c2nc(-c3c(C(=O)NNC(=O)Nc4cccc(Cl)c4)noc3C)cs2)cs1`, the EC50 on Mu-type opioid receptor was 92.5 µM (inactive); in [5], 6.23 µM (active).
For the compound `CNC(=O)Oc1ccc(-c2cn3cc(C)ccc3n2)cc1`, the 50% cytotoxic concentration (CC50) in test [6] is 100 µM (active).
Consider `Cc1cccc(N2CCN(CC(O)COc3ccc4ccccc4c3)CC2)c1` (stereo not drawn), for which the EC50 is 92.4 µM (inactive) at Mu-type opioid receptor and 76 µM (inactive) in test [5].
Take `CN1CCN(c2ccc(CNC(=O)C3Cc4c(-c5ccc(Cl)cc5)ccnc4O3)cc2)CC1` (stereo not drawn): in test [7], the concentration at half-maximal activity (AC50) is 72.1 µM (active).
In the case of `COc1cc(/C=N/Nc2nncn2/N=C/c2ccc(O)c(OC)c2)ccc1O`, the CC50 in test [6] is 10.7 µM (active). The IC50 was 12.9 µM (active) on Large T antigen and 43.6 µM (active) in [8]. For the same compound, the figures for the concentration giving a half-maximal response (EC50) in test [9] and in [10] were 0.658 µM (active) and 2.63 µM (active), respectively.
Turning to `CN(C)C(=O)c1ccc(-c2ccc([C@H]3[C@@H](CO)N4CCCCN(C(=O)C5CCCC5)C[C@@H]34)cc2)cc1`, in test [11], the AC50 is 49 µM (active).
Same read-out and setting: the result for `CC(C)CC#Cc1ccc2c(c1)O[C@H](CN(C)C(=O)c1cnccn1)[C@H](C)CN([C@@H](C)CO)S2(=O)=O` reads 10.5 µM (active).
Take `COc1cccc(OC)c1OCCN1CCN(C(=O)c2ccco2)CC1`: the EC50 at Mu-type opioid receptor was 92.4 µM (inactive); in test [5], 3.12 µM (active).

For the origin of these results see ChEMBL document CHEMBL1201862, “PubChem BioAssay data set” (2004).
